Test results as given in patent US7662644B2, “Labeled peptides, proteins and antibodies and processes and intermediates useful for their preparation” (priority 2000, dated 2010).

Assays:
Rac = target: T1, Rac (Homo sapiens, UniProt P63000); details: literature value; read-out: previously reported GTPγS dissociation constant; cited from earlier work
T1 construct: ECFP or EYFP (fusion partner)

GFP-Rac1 = target: T2, GFP-Rac1 (Homo sapiens, UniProt P63000); test: In vitro FRET titration of Alexa-PBD with GFP-Rac1; format: binding; details: at saturating Alexa-PBD; read-out: apparent GTPγS dissociation constant
T2 construct: 6His; made in house; host or cells: E. coli BL21DE3 (stated for PBD; 'similar procedure' for GFP-Rac1)
Method: FRET between Alexa-PBD and GFP-Rac1 was efficient and dependent on GTP-Rac 1 binding. […] Purified GFP-Rac1 (200 nM) was bound to varying concentrations of […] or GDP at low magnesium by 30 min incubation at 30° C. as described previously (U. G. Knaus et al., J. Biol. Chem. 267, 23575-23582 (1992)), using the following nucleotide equilibration buffer: 50 mM Tris HCl (pH 7.6), 50 mM NaCl, 5 mM MgCl2, 10 mM EDTA, and 1 mM DTT. […] Spectra were corrected for dilution upon Alexa-PBD addition. Alexa-PBD concentrations were either varied as shown, or maintained at 1 micromolar when saturating Alexa-PBD was required. The spectra shown were corrected for direct excitation of the Alexa fluorophore by acquiring spectra of Alexa-PBD alone at equivalent concentrations, and subtracting these from spectra shown in FIG. 7. Kd were determined by fitting to the equation: Y=A*X/(Kd+X). In the FIG. 7, panel A inset, only points actually used in the curve fitting are shown. Higher, saturating concentrations of AlexaPBD were not used because errors from subtraction of direct Alexa excitation became larger. […] The apparent GTPγS dissociation constant was determined at saturating Alexa-PBD by fitting the experimental data to the Michaelis equation (FIG. 7b). […]

[1] = Spectral data for selected merocyanine dyes (absorbance and fluorescence spectra); format: physicochemical; design: Absorption Maximum / Emission Maximum: unit not given here; details: in n-butanol
Method: Absorbance spectra were recorded on Hewlett-Packard HP8452 diode array spectrophotometer and fluorescence spectra were recorded on SPEX Fluorolog 2 spectrometer.

RhoA = target: T3, RhoA (Homo sapiens, UniProt P61586); test: Fluorescence of mero-CBD in presence of RhoA-GTPγS; format: binding; details: RhoA-GTPγS present
T3 construct: 6His; made in house; host or cells: E. coli BL21DE3 (by 'analogous procedures')
T3 sequence (P61586 whole entry, species assumed): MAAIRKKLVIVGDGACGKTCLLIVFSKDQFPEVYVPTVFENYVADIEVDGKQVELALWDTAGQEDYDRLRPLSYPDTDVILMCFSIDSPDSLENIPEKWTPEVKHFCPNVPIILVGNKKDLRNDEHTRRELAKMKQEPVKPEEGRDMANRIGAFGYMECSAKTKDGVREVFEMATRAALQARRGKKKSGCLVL
Method: (§1) Analyses of the solvatochromic activation indicator—A solution of mero-CBD (300 nM) in assay buffer was mixed 1:1 (v/v) with solutions of cdc42 (concentration as indicated), pre-equilibrated with 10 mM GDP or GTPγS as described in Knaus, U. G., Heyworth, P. G., Kinsella, B. T., Cumutte, J. T., and Bokoch, G. M. (1992) J. Biol. Chem. 267, 23575-23582. Emission wavelength of 630 nm and excitation wavelength of 600 nm were used to acquire excitation and emission spectra, respectively. For nucleotide dependence, cdc42 (500 nM) was pre-incubated with varying concentrations of GTPγS (1 to 500 nM). Rac1 and RhoA GTPases were pre-equilibrated with GTPγS in the same manner.
(§2) Fluorescence increase as a measure of CBD-cdc42 interaction—The functionality and specificity of mero-CBD was characterized by measuring fluorescence in the presence of saturating amounts of cdc42-GDP or cdc42-GTPγS. […] Negligible increase (<5%) was also observed in the presence of activated Rac1. No effect on the mero-CBD fluorescence was observed when RhoA-GTPγS was present. Furthermore, even in the presence of excess of activated Rac1 and RhoA, GDP- and GTPγS-bound forms of cdc42 were easily distinguished by CBD-A4C fluorescence (data not shown).

cdc42 = target: T4, cdc42 (Homo sapiens, UniProt P60953); test: Fluorescence of mero-CBD on binding cdc42; details: for increase of fluorescence on binding activated cdc42 (cdc42-GTPγS): saturating cdc42-GTPγS
T4 construct: 6His; made in house; host or cells: E. coli BL21DE3 (stated for CBD; 'analogous procedures' for cdc42)
T4 sequence (P60953 whole entry, species assumed): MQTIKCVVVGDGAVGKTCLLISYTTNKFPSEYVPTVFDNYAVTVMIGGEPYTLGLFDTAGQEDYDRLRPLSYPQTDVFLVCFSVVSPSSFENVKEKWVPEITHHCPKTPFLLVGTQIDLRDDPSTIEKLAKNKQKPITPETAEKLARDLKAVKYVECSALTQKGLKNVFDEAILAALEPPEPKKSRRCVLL
Method: as §1, §2

[2] = Storage of labeled CBD aliquots; format: physicochemical; details: aliquots 15 to 50 μM stored at −80° C. for 6 months
Method: Conjugation of CBD with fluorescent dyes—Dialyzed CBD samples (100-150 μM) were gently inverted with 6 to 7-fold molar excess of the reactive dye at 25° C. for 3 to 4 hours. The reaction was stopped by addition of 10 mM dithiothreitol (DTT), and the mixture was incubated for 15 min. Unreacted dye was separated from the labeled protein using […] (Pharmacia) gel filtration column equilibrated and developed with 25 mM Na2HPO4 (pH 7.5). Purity of the eluting fractions was analyzed by running an aliquot on an SDS gel and visualizing the fluorescence. Only the fractions containing minimal amounts of free dye were used in the subsequent experiments. Dye-to-protein ratio was determined by measuring CBD concentration (ε^280=8,250 M^−1), and A4C concentration at 617 nm (ε=70,000 M^−1 in dimethylsulfoxide) or Alexa546 at 554 nm (ε=104,000 M^−1 in 50 mM potassium phosphate, pH 7.0). Concentrations of CBD were independently confirmed by Coomassie Plus assay (Pierce) calibrated with bovine serum albumin as a standard. Dye-to-protein ratios thus obtained varied between 0.8 and 1.2, 1.7 and 2.1 for the single-dye and dual-dye conjugates, respectively. Aliquots of the labeled CBD (15 to 50 μM) were stored at −80° C. […] In this example, CBD-conjugates were made with the dye shown in FIG. 11, and are referred to as mero-CBD (for merocyanines dye conjugated to CBD).

Rac1 = target: T5, Rac1 (Homo sapiens, UniProt P63000); test: Fluorescence of mero-CBD in presence of activated Rac1; format: binding; details: Rac1 pre-equilibrated with GTPγS
T5 construct: 6His; made in house; host or cells: E. coli BL21DE3 (by 'analogous procedures')
Method: as §1, §2

Molecule	Absorption Maximum [1]	Emission Maximum [1]	Extinction coefficient (*10^−3) [1]	Quantum Yield [1]	also measured
Nc1nc2c(ncn2[C@@H]2O[C@H](COP(=O)(O)OP(=O)(O)OP(O)(O)=S)[C@@H](O)[C@H]2O)c(=O)[nH]1 [GTPγS]					Kd (Rac): 50 nM; Kd (GFP-Rac1): 47 ± 9 nM
CC1(C)/C(=C/C=C/C=C2/C(=O)c3ccccc3S2(=O)=O)N(CCCS(=O)(=O)[O-])c2ccccc21.[Na+] [Compound 3]	586	618	120	0.17	
CC1(C)/C(=C/C=C/C=C2/C(=O)c3ccccc3C2=C(C#N)C#N)N(CCCS(=O)(=O)[O-])c2ccccc21.[Na+] [Compound 4]	667	693	80	0.10	
mero-CBD: cdc42 binding domain of WASP conjugated to the merocyanine dye shown in FIG. 11 (conjugate, left off: small tags and cut ends) DIQNPDITSSRYRGLPAPGPSPADKKRSGKKKISKADIGAPSGFKHVSHVGWDPQNGFDVNNLDPDLRSLCSRAGISEAQLTDAETSKLIYDFIEDQGGLEAVRQEMRRQEPLPPPPPPSR					effect of RhoA-GTPγS on fluorescence (RhoA): No effect; increase of fluorescence with cdc42-GDP (cdc42; saturating cdc42-GDP): but not cdc42-GDP; increase of fluorescence on binding activated cdc42 (cdc42-GTPγS) (cdc42): Approximately 3.5 fold; increase of fluorescence on binding activated cdc42 (cdc42-GTPγS) (cdc42; listed as CBD biosensor): up to 3.5 fold; loss of binding ability on storage [2]: No significant loss of binding ability; increase of fluorescence in the presence of activated Rac1 (Rac1): < 5%
